We go through 3 compounds from patent publication US12559529B2, “NPY2 receptor agonists” (Boehringer Ingelheim International GmbH, priority 2019, dated 2026).

For assay [1], the target named is T1, Human Neuropeptide Y2 Receptor (Homo sapiens, UniProt P49146).
T1 construct: purchased CHEMICON HTS066M
T1 sequence (P49146 1-381): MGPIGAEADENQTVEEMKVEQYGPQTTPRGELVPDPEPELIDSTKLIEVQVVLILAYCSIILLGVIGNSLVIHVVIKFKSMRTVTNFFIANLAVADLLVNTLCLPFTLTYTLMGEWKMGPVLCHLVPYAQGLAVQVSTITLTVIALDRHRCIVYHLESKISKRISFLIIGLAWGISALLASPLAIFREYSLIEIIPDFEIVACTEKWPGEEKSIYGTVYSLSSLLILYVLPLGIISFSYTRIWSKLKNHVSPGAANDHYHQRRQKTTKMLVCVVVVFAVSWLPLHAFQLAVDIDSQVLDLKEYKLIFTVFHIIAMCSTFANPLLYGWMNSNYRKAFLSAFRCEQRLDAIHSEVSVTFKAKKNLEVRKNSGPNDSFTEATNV
As to the kind of experiment: Activity (RLB) after incubation in solutions at different pH values. It counts as binding. The settings on record: apparent Ki of filtrate after 2 h in buffer. The procedure:
The filtration RLB assay was carried out in 96-well plates in a final volume of 100 μl per well. Freeze-dried test peptides were dissolved in 100% dimethyl sulfoxide (DMSO) to stock solutions of 1 mM and serial dilutions were performed in assay buffer (50 mM HEPES, 5 mM MgCl2, 1 mM CaCl2), pH 7.4) containing 0.2% ovalbumin. […] Next, 80 μL membranes (HTS066M, ChemiSCREEN™ Human Neuropeptide Y2 Receptor Membrane Preparation, CHEMICON) were added to each well to give a final protein concentration of 0.5 μg/well. The plates were sealed and incubated at room temperature for 2 hours in a plate shaker set at 400 rpm. The incubation was stopped by vacuum filtration onto 0.5% poly-ethylene amine (PEI) presoaked GF/C filters using a 96-well FilterMate™ harvester (Perkin Elmer) followed by four washes with 300 μl/well ice-cold wash buffer (50 mM HEPES, 500 mM NaCl, pH7.4). Filter plates were then dried for 60 min at room temperature and the bottom of the plates was sealed with backing tape UniFilter-96. Finally, 50 μl/well scintillation counter cocktail (Microscint20, Packard) was added and the radioactivity was counted in the Packard TopCount NXT scintillation counter. IC50 values (the half maximal inhibitory concentration of the agonist) were calculated by nonlinear regression analysis of sigmoidal dose-response curves.
Peptides (as TFA salts) were weighed out in a filter unit (Mini-UniPrep Syringeless Filter 0.45 μm, Whatman), and 0.1 M sodium diphosphate buffer at pH 6.4 or 7.4, respectively, or 0.2 M TRIS buffer at pH 8.3 was added to achieve 10 mg/ml final concentration. The peptide was (partially) dissolved by shaking the filter unit horizontally at approx. 400 rpm for 2 hours at room temperature. The sample was filtered to remove any insoluble particles.

In assay [2] the target is T2, human NPY1 receptor (Homo sapiens, UniProt P25929).
T2 construct: expressed in transfected cells; host or cells: CHO-K1
T2 sequence (P25929 1-384): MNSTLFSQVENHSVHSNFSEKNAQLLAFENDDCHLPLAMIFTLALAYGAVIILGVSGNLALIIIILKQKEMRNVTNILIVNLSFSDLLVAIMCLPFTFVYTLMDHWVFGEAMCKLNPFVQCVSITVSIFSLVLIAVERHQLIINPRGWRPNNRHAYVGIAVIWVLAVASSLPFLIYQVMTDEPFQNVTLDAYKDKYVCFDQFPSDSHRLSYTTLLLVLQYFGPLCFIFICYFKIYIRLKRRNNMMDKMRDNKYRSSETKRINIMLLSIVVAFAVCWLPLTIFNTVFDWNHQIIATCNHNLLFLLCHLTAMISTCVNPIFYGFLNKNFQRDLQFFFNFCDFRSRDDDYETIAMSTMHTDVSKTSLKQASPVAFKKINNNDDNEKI
As to the kind of experiment: HTRF cAMP Gi assay, hY1R. In kind it is cell-based. To be noted: Table 4; CHO-K1 cells.

Assay [3] concerns the target T3, human NPY2 receptor (Homo sapiens, UniProt P49146).
T3 sequence (P49146 1-381): T1 sequence (P49146 1-381)
As to the kind of experiment: HTRF cAMP Gi assay, hY2R.

Assay [4] concerns the target T1, Human Neuropeptide Y2 Receptor. As to the kind of experiment: Radioligand binding competition assay (RLB). The method, boiled down: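 IC50 values come from nonlinear regression of sigmoidal dose-response curves of filter-bound radioactivity. Peptides competed with radioligand at human Y2 receptor membranes (0.5 μg protein/well) for 2 h at room temperature in pH 7.4 HEPES buffer containing Mg2+, Ca2+ and 0.2% ovalbumin.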

In assay [5] the target is T4, human NPY5 receptor (Homo sapiens, UniProt Q15761).
T4 sequence (Q15761 1-445): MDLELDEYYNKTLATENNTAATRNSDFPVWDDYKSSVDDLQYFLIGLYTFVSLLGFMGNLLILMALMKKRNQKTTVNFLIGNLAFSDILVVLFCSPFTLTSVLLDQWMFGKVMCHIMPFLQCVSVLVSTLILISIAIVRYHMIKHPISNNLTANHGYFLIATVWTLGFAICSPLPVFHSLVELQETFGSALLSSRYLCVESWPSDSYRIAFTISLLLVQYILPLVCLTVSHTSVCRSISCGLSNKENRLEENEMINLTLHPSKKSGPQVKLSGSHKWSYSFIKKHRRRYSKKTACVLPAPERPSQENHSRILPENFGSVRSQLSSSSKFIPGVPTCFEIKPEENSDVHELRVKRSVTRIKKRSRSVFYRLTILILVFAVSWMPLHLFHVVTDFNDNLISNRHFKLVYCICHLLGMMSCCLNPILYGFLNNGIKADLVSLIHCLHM
As to the kind of experiment: HTRF cAMP Gi assay, hY5R.
Description: The Homogenous Time Resolved fluorescence (HTRF) technology optimized for Gi coupled receptors has thoroughly been described in Cisbio cAMP Gi kit manual. Briefly, the production of intracellular cAMP will generate a competition between unlabeled cAMP and exogenously added d2-cAMP for anti-cAMP antibodies conjugated to cryptate. CHO-K1 cells stably expressing the human NPY1, NPY2, NPY4 and NPY5 receptors were used with the cells brought to life from a frozen stock immediately before assay performance. 2000 cells per well were applied for all four NPY receptor subtype assays. A 384-well format was used applying a total volume of 20 μl using 5 μl cells, 2.5 μl peptide agonist, 2.5 μl forskolin and 5 μl of each of the fluorophores. […] Concentration-response evaluation of compounds was performed with 11 concentrations of agonist peptides (covering 3 decades). EC50 values were calculated by nonlinear regression using sigmoid concentration-response with variable slope.

The target of assay [6] is T5, human NPY4 receptor (Homo sapiens, UniProt P50391).
T5 construct: expressed in transfected cells; host or cells: CHO-K1
Description: HTRF cAMP Gi assay, hY4R. It counts as cell-based. The settings on record: Table 4; CHO-K1 cells.

The subject of assay [7] is normal NMRI mice. Description: Effect on acute food intake in normal NMRI mice. In kind it is in vivo. The settings on record: male NMRI mice, 10 nmol/kg subcutaneously once. The method, boiled down: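 Male NMRI mice acclimatized in an HM-2 real-time food intake monitoring system, fasted 6 h before dark phase. Single subcutaneous dose of 10 nmol/kg peptide given 1 h before dark; n=7-8. Food intake expressed as % of vehicle group (50 mM phosphate pH7, 5% Mannitol).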

Setting [8] is: Table 3, human 125I-PYY (1-36) 0.02 nM, Y2 receptor membranes, read-out: Ki.

Where only a bound is given, the exact number is not on record here.

T5 sequence (P50391 whole entry): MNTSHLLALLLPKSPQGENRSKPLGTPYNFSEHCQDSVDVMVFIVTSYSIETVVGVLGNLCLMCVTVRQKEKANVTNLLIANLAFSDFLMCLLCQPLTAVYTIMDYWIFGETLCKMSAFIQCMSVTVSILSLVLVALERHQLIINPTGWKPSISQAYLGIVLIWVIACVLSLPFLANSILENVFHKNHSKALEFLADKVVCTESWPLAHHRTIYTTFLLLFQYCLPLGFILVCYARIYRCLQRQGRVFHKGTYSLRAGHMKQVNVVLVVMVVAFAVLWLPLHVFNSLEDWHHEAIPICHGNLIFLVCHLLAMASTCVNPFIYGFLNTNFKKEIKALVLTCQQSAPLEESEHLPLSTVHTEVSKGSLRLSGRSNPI

In the case of `CC[C@H](C)[C@H](NC(=O)[C@H](CCC(=O)O)NC(=O)[C@H](CCC(=O)O)NC(=O)[C@@H]1CCCN1C(=O)[C@H](CO)NC(=O)[C@H](C)NC(=O)[C@H](CC(=O)O)NC(=O)[C@H](CCC(=O)O)NC(=O)[C@H](CCC(=O)O)NC(=O)[C@@H]1CCCN1C(=O)[C@H](CCCCNC(=O)COCCOCCNC(=O)COCCOCCNC(=O)CC[C@H](NC(=O)CCCCCCCCCCCCCCCCC(=O)O)C(=O)O)NC(=O)[C@H](C)NC(=O)[C@@H]1CCCN1C(=O)[C@H](C)NC(=O)CC(C)C)C(=O)N[C@@H](CCC(N)=O)C(=O)N[C@@H](CCCNC(=N)N)C(=O)N[C@@H](Cc1ccc(O)cc1)C(=O)N[C@@H](Cc1ccc(O)cc1)C(=O)N[C@H](C(=O)N[C@@H](CO)C(=O)N[C@@H](CC(C)C)C(=O)N[C@@H](CCCNC(=N)N)C(=O)N[C@@H](Cc1c[nH]cn1)C(=O)N[C@@H](Cc1ccc(O)cc1)C(=O)N[C@@H](Cc1ccc(O)cc1)C(=O)N[C@@H](CC(N)=O)C(=O)N[C@@H](Cc1c[nH]c2ccccc12)C(=O)N[C@@H](CC(C)C)C(=O)N[C@H](C(=O)N[C@@H](CCCNC(=N)N)C(=O)N[C@@H](CCC(N)=O)C(=O)N[C@@H](CCCNC(=N)N)C(=O)N[C@@H](Cc1ccc(O)cc1)C(N)=O)[C@@H](C)O)C(C)C` [Compound 23, N{alpha-4}-(3-methylbutanoyl)-N{epsilon-7}-[2-(2-{2-[2-(2-{2-[(4S)-4-carboxy-4-(17-carboxyheptadecanamido)butanamido]ethoxy}ethoxy)acetamido]ethoxy}ethoxy)acetamido]-[4A,6A,7K,9E,17I,18Q,22V,28Y,30W,31L]hPYY (4-36)], the Ki in assay [1] (pH6.1-6.2, assumed 10 mg/ml, read-out: RLB 6 (pH6.1-6.2)) is 6.3 nM; in assay [1] (pH7.1-7.2, assumed 10 mg/ml, read-out: RLB 7 (pH7.1-7.2)) it was 6.3 nM; in assay [1] (pH8.1-8.2, assumed 10 mg/ml, read-out: RLB 8 (pH8.1-8.2)), 6.3 nM; in assay [4] (setting [8]), 0.63 nM; in assay [4] (Table 8, from DMSO stock, read-out: hY2R RLB Ki (nM) DMSO), 4.9 nM. The EC50 was more than 5000 nM in assay [2], 0.15 nM in assay [3], more than 5000 nM in assay [5] and more than 5000 nM in assay [6].
With `CC(C)CC(=O)N[C@@H](C)C(=O)N1CCC[C@H]1C(=O)N[C@@H](CCC(=O)O)C(=O)N[C@@H](CCCCNC(=O)COCCOCCNC(=O)COCCOCCNC(=O)CC[C@H](NC(=O)CCCCCCCCCCCCCCCCC(=O)O)C(=O)O)C(=O)N1CCC[C@H]1C(=O)N[C@@H](CCC(=O)O)C(=O)N[C@@H](CCC(=O)O)C(=O)N[C@@H](CC(=O)O)C(=O)N[C@@H](C)C(=O)N[C@@H](CO)C(=O)N1CCC[C@H]1C(=O)N[C@@H](CCC(=O)O)C(=O)N[C@@H](CCC(=O)O)C(=O)N[C@@H](CC(C)C)C(=O)N[C@@H](CCC(N)=O)C(=O)N[C@@H](CCCNC(=N)N)C(=O)N[C@@H](Cc1ccc(O)cc1)C(=O)N[C@@H](Cc1ccc(O)cc1)C(=O)N[C@H](C(=O)N[C@@H](CO)C(=O)N[C@@H](CC(C)C)C(=O)N[C@@H](CCCNC(=N)N)C(=O)N[C@@H](Cc1c[nH]cn1)C(=O)N[C@@H](Cc1ccc(O)cc1)C(=O)N[C@@H](Cc1ccc(O)cc1)C(=O)N[C@@H](CC(N)=O)C(=O)N[C@@H](Cc1c[nH]c2ccccc12)C(=O)N[C@@H](CC(C)C)C(=O)N[C@H](C(=O)N[C@@H](CCCNC(=N)N)C(=O)N[C@@H](CCC(N)=O)C(=O)N[C@@H](CCCNC(=N)N)C(=O)N[C@@H](Cc1ccc(O)cc1)C(N)=O)[C@@H](C)O)C(C)C` [Compound 54, N{alpha-4}-(3-methylbutanoyl)-N{epsilon-7}-[2-(2-{2-[2-(2-{2-[(4S)-4-carboxy-4-(17-carboxyheptadecanamido)butanamido]ethoxy}ethoxy)acetamido]ethoxy}ethoxy)acetamido]-[4A,7K,9E,18Q,22V,28Y,30W,31L]hPYY (4-36)], the EC50 in assay [2] was more than 5000 nM; in assay [3], 0.131 nM; in assay [5] it was more than 5000 nM; in assay [6], more than 5000 nM. The Ki in assay [4] (setting [8]) amounted to 0.95 nM. For the same compound, in assay [7], the “Acute Food Intake 24 h [% vehicle]” value is on record as 42 % vehicle.
For the compound `CC(C)CC(=O)N[C@@H](C)C(=O)N1CCC[C@H]1C(=O)N[C@@H](CCC(=O)O)C(=O)N[C@@H](CCCCNC(=O)COCCOCCNC(=O)COCCOCCNC(=O)CC[C@H](NC(=O)CCCCCCCCCCCCCCCCC(=O)O)C(=O)O)C(=O)N1CCC[C@H]1C(=O)N[C@@H](CCC(=O)O)C(=O)N[C@@H](CCC(=O)O)C(=O)N[C@@H](CCC(=O)O)C(=O)N[C@@H](C)C(=O)N[C@H](C(=O)N1CCC[C@H]1C(=O)N[C@@H](CCC(=O)O)C(=O)N[C@@H](CCC(=O)O)C(=O)N[C@@H](CC(C)C)C(=O)N[C@@H](CCC(N)=O)C(=O)N[C@@H](CCCNC(=N)N)C(=O)N[C@@H](Cc1ccc(O)cc1)C(=O)N[C@@H](Cc1ccc(O)cc1)C(=O)N[C@H](C(=O)N[C@@H](CO)C(=O)N[C@@H](CC(C)C)C(=O)N[C@@H](CCCNC(=N)N)C(=O)N[C@@H](Cc1c[nH]cn1)C(=O)N[C@@H](Cc1ccc(O)cc1)C(=O)N[C@@H](Cc1ccc(O)cc1)C(=O)N[C@@H](CC(N)=O)C(=O)N[C@@H](Cc1c[nH]c2ccccc12)C(=O)N[C@@H](CC(C)C)C(=O)N[C@H](C(=O)N[C@@H](CCCNC(=N)N)C(=O)N[C@@H](CCC(N)=O)C(=O)N[C@@H](CCCNC(=N)N)C(=O)N[C@@H](Cc1ccc(O)cc1)C(N)=O)[C@@H](C)O)C(C)C)[C@@H](C)O` [Compound 41, N{alpha-4}-(3-methylbutanoyl)-N{epsilon-7}-[2-(2-{2-[2-(2-{2-[(4S)-4-carboxy-4-(17-carboxyheptadecanamido)butanamido]ethoxy}ethoxy)acetamido]ethoxy}ethoxy)acetamido]-[4A,7K,9E,11E,13T,18Q,22V,28Y,30W,31L]hPYY (4-36)], the EC50 was more than 5000 nM in assay [2], 0.159 nM in assay [3], more than 5000 nM in assay [5] and more than 5000 nM in assay [6]. Further, the Ki in assay [4] (setting [8]) came out at 3.22 nM. The “Acute Food Intake 24 h [% vehicle]” value in assay [7] is listed as 44 % vehicle.
